Assay results reported in patent US9024071B2, “Therapeutic compounds” (University of Florida Research Foundation, Inc., priority 2009, dated 2015).
Entries after “also recorded” stand apart in the source; their conditions may differ.

What was measured:
5HT2C [1] = biological target: T1, 5HT2C (Homo sapiens, UniProt P28335); test: Radioreceptor competition/saturation binding, 5HT2C ([3H]-mesulergine); details: competitive binding; for nH: Hill slope; for Ki: wild type receptor transiently expressed (FIG. 1: HEK 293 cells)
T1 sequence (P28335 33-458): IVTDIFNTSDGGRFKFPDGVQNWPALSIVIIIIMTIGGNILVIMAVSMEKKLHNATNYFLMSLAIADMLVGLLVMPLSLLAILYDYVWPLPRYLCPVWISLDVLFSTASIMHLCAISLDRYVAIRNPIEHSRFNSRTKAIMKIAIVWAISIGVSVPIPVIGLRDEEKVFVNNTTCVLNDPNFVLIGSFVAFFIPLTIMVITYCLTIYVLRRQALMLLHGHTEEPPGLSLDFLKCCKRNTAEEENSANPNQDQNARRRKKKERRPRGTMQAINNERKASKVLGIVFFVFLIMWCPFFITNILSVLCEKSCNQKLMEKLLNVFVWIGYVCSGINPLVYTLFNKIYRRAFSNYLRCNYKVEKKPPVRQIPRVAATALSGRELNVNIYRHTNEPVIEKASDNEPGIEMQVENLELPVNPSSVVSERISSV
Experimental: (§1) Cells are grown at 37° C. in a humidified incubator with 5% CO2. The cDNAs encoding the human 5-HT2A, 5-HT2B, and 5-HT2C receptors (wild type) are purchased from UMR (Rolla, Mo.) for transient transfection of the clonal cells. For radioreceptor binding assays, 5-HT2A, 5-HT2B, and 5-HT2C receptor membranes are prepared from transfected CHO-K1 cells. For functional assays measuring activity of PLC/IP formation, transfected CHO-K1 cells are used for 5-HT2A and 5-HT2C receptors. […] Twenty-four hours before transfection, cells are seeded at 40% confluence in 100 mm dishes for radioreceptor binding assays or at 10^5 cells per well in 12-well plates for functional assays. CHO-K1 cells are transiently transfected with 12 μg of plasmid and 32 μl of lipofectamine (Invitrogen) per 100 mm dish for radioreceptor binding assays, or, 0.8 μg plasmid and 4.0 μl of lipofectamine per well for functional assays. For 5-HT2B functional assays using HEK cells, 24 μg plasmid DNA is mixed with 60 μl of Lipofectamine 2000 (Invitrogen) to transfect 1-2×10^6 cells in a 10-cm plate. Cells are allowed to express transfected receptors for another 24 hrs (Herrick, 1997).
(§2) Radioreceptor saturation and competition binding assays are performed using membrane homogenates, similar to our methods reported previously for the phylogenetically closely related histamine H1 GPCR (Booth, 2002; Moniri et al., 2004). […] Briefly, forty-eight hours following CHO cell transfection, cells are harvested and homogenized in 50 mM Tris-HCl containing 0.1% ascorbic acid and 4.0 mM CaCl2 at pH 7.4 (assay buffer). The homogenate is centrifuged at 35,000 g for 25 min and the resulting membrane pellet is re-suspended in assay buffer. Protein concentration is determined by the method of Lowry et al. (Lowry, 1951). […] Incubation of radioreceptor binding assay mixtures is for 1.0 h at 37° C., with termination by rapid filtration through Whatman GF/B filters using a 96-well cell harvester (Tomtec, Hamden, Conn.). The membrane-bound [^3H]-radioligand retained on the filter discs is quantified by liquid scintillation spectrometry. Data are analyzed by nonlinear regression using the sigmoidal curve-fitting algorithms in Prism 4.03 (GraphPad Software Inc., San Diego, Calif.). Ligand affinity is expressed as an approximation of Ki values by conversion of the IC50 data to K0.5 values using the equation K0.5=IC50/1+L/KD, where L is the concentration of radioligand having affinity KD (Cheng, 1973).

Histamine H1 WT = biological target: T2, Histamine H1 WT (Homo sapiens, UniProt P35367); test: Competitive binding, histamine H1 receptor; details: Hill slope
T2 construct: expressed in transfected cells
T2 sequence (P35367 whole entry): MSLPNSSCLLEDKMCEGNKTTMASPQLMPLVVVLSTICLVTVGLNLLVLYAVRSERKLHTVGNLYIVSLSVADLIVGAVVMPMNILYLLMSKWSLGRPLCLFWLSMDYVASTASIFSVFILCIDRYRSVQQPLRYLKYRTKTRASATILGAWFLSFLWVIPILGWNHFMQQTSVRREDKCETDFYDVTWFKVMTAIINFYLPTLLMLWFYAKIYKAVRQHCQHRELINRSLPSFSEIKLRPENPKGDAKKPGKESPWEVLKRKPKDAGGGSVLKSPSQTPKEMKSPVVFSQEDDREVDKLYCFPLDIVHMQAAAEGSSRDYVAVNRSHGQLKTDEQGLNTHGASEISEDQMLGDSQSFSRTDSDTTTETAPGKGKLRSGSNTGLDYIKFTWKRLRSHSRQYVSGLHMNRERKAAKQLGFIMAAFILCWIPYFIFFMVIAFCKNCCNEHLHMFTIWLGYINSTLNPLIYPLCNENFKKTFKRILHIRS
Experimental: as §2

5HT2B [2] = biological target: T3, 5HT2B (Homo sapiens, UniProt P41595); test: Radioreceptor competition/saturation binding, 5HT2B ([3H]-mesulergine); details: competitive binding; for nH: Hill slope; for Ki: wild type receptor transiently expressed (FIG. 1: HEK 293 cells)
T3 sequence (P41595 whole entry): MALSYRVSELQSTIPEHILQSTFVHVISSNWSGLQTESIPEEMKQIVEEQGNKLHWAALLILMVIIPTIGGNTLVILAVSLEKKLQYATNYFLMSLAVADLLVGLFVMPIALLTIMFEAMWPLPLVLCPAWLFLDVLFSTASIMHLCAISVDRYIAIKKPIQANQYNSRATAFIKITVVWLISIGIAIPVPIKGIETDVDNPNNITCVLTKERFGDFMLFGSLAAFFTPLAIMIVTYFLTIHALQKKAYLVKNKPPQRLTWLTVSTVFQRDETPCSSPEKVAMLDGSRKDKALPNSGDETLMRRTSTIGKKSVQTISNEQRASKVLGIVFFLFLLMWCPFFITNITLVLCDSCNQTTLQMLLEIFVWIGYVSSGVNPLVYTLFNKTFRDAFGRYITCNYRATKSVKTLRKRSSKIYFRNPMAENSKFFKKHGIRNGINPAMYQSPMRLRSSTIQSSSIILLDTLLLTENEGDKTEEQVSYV
Experimental: as §1, §2

5HT2A [3] = biological target: T4, 5HT2A (Homo sapiens, UniProt P28223); test: Radioreceptor competition/saturation binding, 5HT2A ([3H]-ketanserin); details: competitive binding; for nH: Hill slope; for Ki: wild type receptor transiently expressed (FIG. 1: HEK 293 cells)
T4 sequence (P28223 whole entry): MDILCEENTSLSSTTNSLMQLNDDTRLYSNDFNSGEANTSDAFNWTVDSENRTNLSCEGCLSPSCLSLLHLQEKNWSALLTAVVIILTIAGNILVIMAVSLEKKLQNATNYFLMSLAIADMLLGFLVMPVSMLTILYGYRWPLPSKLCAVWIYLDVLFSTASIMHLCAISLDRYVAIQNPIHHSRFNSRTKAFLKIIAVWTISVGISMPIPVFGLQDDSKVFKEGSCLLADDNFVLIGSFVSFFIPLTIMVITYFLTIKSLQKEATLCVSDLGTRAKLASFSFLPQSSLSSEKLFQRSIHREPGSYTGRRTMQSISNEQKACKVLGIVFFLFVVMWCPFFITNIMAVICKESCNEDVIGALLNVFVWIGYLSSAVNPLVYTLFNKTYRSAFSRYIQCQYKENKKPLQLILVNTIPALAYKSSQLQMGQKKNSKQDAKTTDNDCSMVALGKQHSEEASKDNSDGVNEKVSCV
Experimental: as §1, §2

438 other kinases = test: Kinase affinity panel (labeled tag binding), other kinases; details: at concentrations up to 1.0 uM
5HT2A [4] = biological target: T4, 5HT2A; test: PLC activity/[3H]-IP formation, 5HT2A; format: cell-based
Experimental: (§3) Cells are grown at 37° C. in a humidified incubator with 5% CO2. The cDNAs encoding the human 5-HT2A, 5-HT2B, and 5-HT2C receptors (wild type) are purchased from UMR (Rolla, Mo.) for transient transfection of the clonal cells. For radioreceptor binding assays, 5-HT2A, 5-HT2B, and 5-HT2C receptor membranes are prepared from transfected CHO-K1 cells. For functional assays measuring activity of PLC/IP formation, transfected CHO-K1 cells are used for 5-HT2A and 5-HT2C receptors. For 5HT2B receptors, however, more robust and consistent results for the PLC/IP assay are obtained using transfected HEK cells (Setola et al., 2005). Twenty-four hours before transfection, cells are seeded at 40% confluence in 100 mm dishes for radioreceptor binding assays or at 10^5 cells per well in 12-well plates for functional assays. CHO-K1 cells are transiently transfected with 12 μg of plasmid and 32 μl of lipofectamine (Invitrogen) per 100 mm dish for radioreceptor binding assays, or, 0.8 μg plasmid and 4.0 μl of lipofectamine per well for functional assays. For 5-HT2B functional assays using HEK cells, 24 μg plasmid DNA is mixed with 60 μl of Lipofectamine 2000 (Invitrogen) to transfect 1-2×10^6 cells in a 10-cm plate. Cells are allowed to express transfected receptors for another 24 hrs (Herrick, 1997).
(§4) Functional activation of PLC is measured as [^3H]-IP formation in CHO cells transiently expressing serotonin 5-HT2C receptors or HEK cells transiently expressing serotonin 5-HT2A or 5-HT2B receptors, as previously reported (Moniri et al., 2004). Briefly, thirty-two hours following transfection, cells in inositol-free Dulbecco's modified Eagle's medium (DMEM) are incubated for twelve hours with 1.0 μCi/ml myo-[2-^3H]-inositol, the radiolabeled precursor of the PLC-β substrate phosphatidylinositol. […]
(§5) Functional activation of PLC is measured as [^3H]-IP formation in CHO cells transiently expressing 5-HT2A or 5-HT2C receptors and HEK cells transiently expressing 5HT2B receptors, as previously reported by our lab (Booth, 2002; Moniri et al., 2004). […]

RSK 3 = RSK 3 (Homo sapiens, UniProt Q15349); test: Kinase affinity panel (labeled tag binding), RSK 3; details: at 1.0 uM CAT
RSK 3, sequence (Q15349 whole entry): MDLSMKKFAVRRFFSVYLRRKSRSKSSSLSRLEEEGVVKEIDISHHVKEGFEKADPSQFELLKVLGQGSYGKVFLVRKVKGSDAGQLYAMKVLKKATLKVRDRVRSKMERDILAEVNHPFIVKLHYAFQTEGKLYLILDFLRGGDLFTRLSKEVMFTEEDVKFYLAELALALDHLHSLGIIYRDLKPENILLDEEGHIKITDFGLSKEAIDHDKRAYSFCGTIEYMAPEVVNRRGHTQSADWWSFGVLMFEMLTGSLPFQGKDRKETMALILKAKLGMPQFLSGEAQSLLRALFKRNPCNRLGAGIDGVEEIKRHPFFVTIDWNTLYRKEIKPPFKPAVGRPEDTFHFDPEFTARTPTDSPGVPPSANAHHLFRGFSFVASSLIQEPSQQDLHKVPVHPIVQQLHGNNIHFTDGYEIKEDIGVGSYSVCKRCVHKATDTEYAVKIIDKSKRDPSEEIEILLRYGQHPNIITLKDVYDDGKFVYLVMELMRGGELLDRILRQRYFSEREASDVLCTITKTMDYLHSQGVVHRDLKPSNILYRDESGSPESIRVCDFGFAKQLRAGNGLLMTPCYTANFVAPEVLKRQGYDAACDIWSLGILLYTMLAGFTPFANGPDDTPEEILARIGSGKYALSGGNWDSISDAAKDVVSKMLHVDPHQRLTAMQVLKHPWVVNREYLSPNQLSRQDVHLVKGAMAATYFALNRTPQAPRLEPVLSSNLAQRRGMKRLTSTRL

5HT2C [5] = biological target: T1, 5HT2C; test: PLC activity/[3H]-IP formation, 5HT2C; format: cell-based
Experimental: as §3, §4, §5

RSK 4 = RSK 4 (Homo sapiens, UniProt Q9UK32); test: Kinase affinity panel (labeled tag binding), RSK 4; details: at 1.0 uM CAT
RSK 4, sequence (Q9UK32 whole entry): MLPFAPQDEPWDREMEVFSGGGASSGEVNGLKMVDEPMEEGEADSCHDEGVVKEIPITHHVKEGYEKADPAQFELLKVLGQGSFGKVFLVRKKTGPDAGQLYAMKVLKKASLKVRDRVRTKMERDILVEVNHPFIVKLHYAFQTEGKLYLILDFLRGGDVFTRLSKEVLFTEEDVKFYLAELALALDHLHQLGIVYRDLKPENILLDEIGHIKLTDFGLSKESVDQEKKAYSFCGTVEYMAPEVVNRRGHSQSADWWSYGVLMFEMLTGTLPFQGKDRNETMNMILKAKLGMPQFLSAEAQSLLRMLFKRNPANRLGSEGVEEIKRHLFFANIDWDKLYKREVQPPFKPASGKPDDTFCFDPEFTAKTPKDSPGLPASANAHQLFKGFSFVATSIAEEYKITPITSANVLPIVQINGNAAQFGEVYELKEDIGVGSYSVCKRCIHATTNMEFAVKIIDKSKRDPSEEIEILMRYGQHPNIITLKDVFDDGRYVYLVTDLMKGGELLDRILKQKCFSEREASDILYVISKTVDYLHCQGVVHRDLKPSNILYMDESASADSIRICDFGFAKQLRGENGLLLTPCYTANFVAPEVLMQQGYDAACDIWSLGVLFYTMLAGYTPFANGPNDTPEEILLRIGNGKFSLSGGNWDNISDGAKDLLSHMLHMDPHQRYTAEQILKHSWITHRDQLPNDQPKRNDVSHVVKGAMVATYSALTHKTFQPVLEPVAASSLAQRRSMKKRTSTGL

Histamine H1 receptor = Histamine H1 receptor (Homo sapiens, UniProt P35367); test: Histamine H1 receptor-mediated stimulation of PLC activity/[3H]-IP formation; format: cell-based; details: against histamine activation
Histamine H1 receptor, sequence (P35367 whole entry): as the sequence (P35367 whole entry) above

5HT2B [6] = biological target: T3, 5HT2B; test: PLC activity/[3H]-IP formation, 5HT2B; format: cell-based
Experimental: as §1

RSK 2 = RSK 2 (Homo sapiens, UniProt P51812); test: Kinase affinity panel (labeled tag binding), RSK 2; details: at concentrations up to 1.0 uM
RSK 2, sequence (P51812 whole entry): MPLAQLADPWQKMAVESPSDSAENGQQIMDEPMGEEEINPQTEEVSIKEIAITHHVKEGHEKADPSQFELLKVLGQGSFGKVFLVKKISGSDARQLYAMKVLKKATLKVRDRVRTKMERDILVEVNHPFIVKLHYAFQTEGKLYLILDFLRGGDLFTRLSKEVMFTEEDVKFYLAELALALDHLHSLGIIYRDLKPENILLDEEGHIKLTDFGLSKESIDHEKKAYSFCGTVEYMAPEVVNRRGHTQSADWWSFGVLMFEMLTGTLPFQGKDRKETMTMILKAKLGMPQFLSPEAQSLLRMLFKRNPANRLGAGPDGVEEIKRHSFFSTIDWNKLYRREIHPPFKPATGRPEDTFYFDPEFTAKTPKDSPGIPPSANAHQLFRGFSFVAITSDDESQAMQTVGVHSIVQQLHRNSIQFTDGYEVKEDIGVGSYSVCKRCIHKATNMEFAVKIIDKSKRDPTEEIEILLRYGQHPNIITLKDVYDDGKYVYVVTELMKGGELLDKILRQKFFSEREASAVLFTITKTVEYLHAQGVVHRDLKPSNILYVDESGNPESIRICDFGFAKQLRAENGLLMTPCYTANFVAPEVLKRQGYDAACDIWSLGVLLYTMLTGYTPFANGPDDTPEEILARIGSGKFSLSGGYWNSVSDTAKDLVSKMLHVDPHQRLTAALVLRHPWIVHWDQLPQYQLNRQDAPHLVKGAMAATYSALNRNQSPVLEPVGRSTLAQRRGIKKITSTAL

RSK 1 = RSK 1 (Homo sapiens, UniProt Q15418); test: Kinase affinity panel (labeled tag binding), RSK 1; details: at 1.0 uM CAT
RSK 1, sequence (Q15418 whole entry): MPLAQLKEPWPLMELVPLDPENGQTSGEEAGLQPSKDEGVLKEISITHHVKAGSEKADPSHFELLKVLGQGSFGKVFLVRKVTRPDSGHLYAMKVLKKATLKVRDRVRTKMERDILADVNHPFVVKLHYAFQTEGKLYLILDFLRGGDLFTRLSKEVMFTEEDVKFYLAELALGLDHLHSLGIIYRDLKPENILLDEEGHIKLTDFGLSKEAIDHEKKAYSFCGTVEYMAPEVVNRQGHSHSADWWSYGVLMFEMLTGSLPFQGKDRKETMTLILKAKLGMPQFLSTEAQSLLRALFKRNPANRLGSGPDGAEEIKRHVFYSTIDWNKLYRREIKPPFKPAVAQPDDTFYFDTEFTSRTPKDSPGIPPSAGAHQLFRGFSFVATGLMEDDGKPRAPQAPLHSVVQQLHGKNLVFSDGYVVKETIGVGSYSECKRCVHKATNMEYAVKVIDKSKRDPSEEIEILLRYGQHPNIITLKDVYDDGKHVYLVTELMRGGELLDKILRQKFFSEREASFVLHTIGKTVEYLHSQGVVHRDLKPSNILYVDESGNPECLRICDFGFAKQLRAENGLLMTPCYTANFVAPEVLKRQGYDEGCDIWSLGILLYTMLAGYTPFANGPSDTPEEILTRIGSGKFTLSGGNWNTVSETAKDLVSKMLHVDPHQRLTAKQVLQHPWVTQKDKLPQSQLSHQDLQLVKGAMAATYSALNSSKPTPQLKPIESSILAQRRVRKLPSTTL

[7] = system: cocaine self-administration; details: rat; cited from earlier work
5HT2C [8] = biological target: T1, 5HT2C; details: cited from earlier work
[9] = inhibition of basal (constitutive) [3H]-IP formation

Structure (SMILES)	nH (5HT2C [1])	Ki (5HT2C [1])	nH (Histamine H1 WT)	nH (5HT2B [2])	Ki (5HT2B [2])	nH (5HT2A [3])	Ki (5HT2A [3])	rate of cocaine self-administration [7]	other results
CN(C)[C@H]1Cc2ccccc2[C@H](C2CCCCC2)C1 [(+)-trans-CAT, (+)-(2R,4S)-4-cyclohexyl-N,Ndimethyl-1,2,3,4-tetrahydronaphthalen-2-amine]	1.20 ± 0.26	0.029 ± 0.0044 µM	1.02 ± 0.00	0.75 ± 0.12	1.01 ± 0.14 µM	0.77 ± 0.20	0.0782 ± 0.004 µM		
CN(C)[C@@H]1Cc2ccccc2[C@@H](C2CCCCC2)C1 [(−)-trans-CAT, (−)-(2S,4R)-4-cyclohexyl-N,N-dimethyl-1,2,3,4-tetrahydronaphthalen-2-amine]	1.13 ± 0.18	0.0137 ± 0.00217 µM	1.01 ± 0.05	0.81 ± 0.02	0.0237 ± 0.00079 µM	1.26 ± 0.01	0.00161 ± 5e-05 µM		binding to 438 other kinases (438 other kinases): did not exhibit as significant binding; Kind of functional activity, PLC activity/IP formation (5HT2A [4]): inverse agonist; PLC/IP formation IMAX (5HT2A [4]): 48.45 ± 5.50 % Basal; IC50 (5HT2A [4]; [9]): 0.13 ± 0.02 µM; inhibition of labeled tag binding (RSK 3): 80%; Kind of functional activity, PLC activity/IP formation (5HT2C [5]): inverse agonist; PLC/IP formation IMAX (5HT2C [5]): 60.65 ± 2.94 % Basal; IC50 (5HT2C [5]; [9]): 0.19 ± 0.04 µM; inhibition of labeled tag binding (RSK 4): 80%; PLC/IP formation, kind of activity at H1 (Histamine H1 receptor): competitively antagonized; also recorded: Competitive; Kind of functional activity, PLC activity/IP formation (5HT2B [6]): inverse agonist; PLC/IP formation IMAX (5HT2B [6]): 56.80 ± 2.13 % Basal; IC50 (5HT2B [6]; [9]): 0.25 ± 0.03 µM; binding to RSK 2 (RSK 2): did not exhibit similarly significant binding; inhibition of tag binding (RSK 1): 20%
COc1cccc([C@H](O)C2CCN(CCc3ccc(F)cc3)CC2)c1OC [M100907]								does not alter responding rate	
Cc1cc2c(cc1Cl)N(C(=O)Nc1ccc(Oc3cccnc3C)nc1)CC2 [SB242084]								increases the rate of cocaine self-administration dose-dependently	
C[C@H]1CNCCc2ccc(Cl)cc21 [lorcaserin, Lorcaserin]									selectivity for activation of 5HT2C receptors over 5HT2A receptors (5HT2C [8]): 15 fold
